Laboratory results reported in US20080274882A1, “Insecticides Based on Selected Neonicotinoids and Strobilurins” (Bayer CropScience AG, priority 2004, published 2008).

Key:
[1] = system: Myzus persicae; assay: Myzus persicae test (cabbage leaf dip); format: in vivo; conditions: for Kill in % after 6 days: Table A2; for Kill in % after 1 day: Table A1
[2] = system: Phaedon cochleariae larvae; assay: Phaedon cochleariae larvae test (cabbage leaf dip)

pyraclostrobin
Kill in % after 6 days ([1]; 100 ppm): 35%

CO/C=C(/C(=O)OC)c1ccccc1COc1cccc(C(F)(F)F)n1 [picoxystrobin]
Kill in % after 1 day ([1]; 100 ppm): 0%
Kill in % after 6^d ([2]; 100 ppm, Table B1): 0%

CN/C(=N\[N+](=O)[O-])NCc1cnc(Cl)s1 [clothianidin]
Kill in % after 1 day ([1]; 0.8 ppm): 40%
Kill in % after 6 days ([1]; 0.8 ppm): 30%
Kill in % after 6^d ([2]; 4 ppm, Table B1): 20%
Kill in % after 6^d ([2]; 4 ppm, Table B2): 60%

CNC(=O)/C(=N/OC)c1ccccc1COc1cc(C)ccc1C [dimoxystrobin]
Kill in % after 6^d ([2]; 20 ppm, Table B2): 0%
